Source: US5162354A, “3-halo-5-halomethyl-2-oxazolidinones and their use as microbicides” (Buckman Laboratories International, Inc., priority 1991, dated 1992)
≈ marks a conversion by molar mass, not a printed value. Where two headings read alike, the source gives them in different places.

Assays:
Type in all cases: cell-based
Enterobacter aerogenes = test: Basal salts method, minimum inhibitory concentration against Enterobacter aerogenes; conditions: Klebsiella aerogenes, at least 80% kill
Method: Compounds 1-4 of Examples 3-6 of the present invention were tested by the basal salts method described in U.S. Pat. No. 2,881,070 at column 5, beginning at line 12 and extending to column 6, line 53. […] The minimum inhibitory concentrations are those in which a percentage kill of at least 80% is obtained.

Chlorella pyrenoidosa = test: Growth inhibiting activity against algae in Difco Algae Broth (Chlorella pyrenoidosa); conditions: Auxenochlorella pyrenoidosa, 672 h, pH 7, read-out: Minimum inhibitory concentration against algae
Method: (§1) The growth inhibiting activity of the method of the invention against the three algae Chlorella pyrenoidosa, Chlorococcum hypnosporum and Phormidium inundatum was evaluated in Difco Algae Broth, the content of which was as follows:
(§2) Forty-gram portions of the algae medium were added to 250 mL Pyrex Erlenmeyer flasks fitted with loose metal caps and then sterilized. Each of the following substances was then added to the flasks in the order listed:
(§3) 1. Sterile algae medium as required to bring the total weight of the contents of each flask to 50 grams, after allowing for all subsequent additions specified below.
(§4) 2. A solution of one of compounds 1-4 or of a control agent to be evaluated in each test, to give the concentration desired in parts per million by weight.
(§5) 3. Chlorella pyrenoidosa, Chlorococcum hypnosporum and Phormidium inundatum in amounts sufficient to give excellent growth in the controls after 14 days. This was achieved by adding 1 milliliter of a 14 day old culture having luxuriant growth. The Chlorella pyrenoidosa culture was obtained from American Type Culture Collection No. 7516; Chlorococcum hypnosporum, from the University of TX at Austin; and Phormidium inundatum, WI No. 1093, from the University of WA.
(§6) As a control experiment, WSCP was used as a positive control agent. WSCP is a known toxicant which kills C. pyrenoidosa at 2 ppm, C. hypnosporum at 2ppm, and P. inundatum at 10 ppm. Control experiments were also carried out where no toxicants were employed. In the algicidal tests, the growth of algae in the nutrient medium is lush green and can be seen with the naked eye. Because the minimum inhibitory concentrations of the compounds in this example are those which result in complete inhibition, evaluation of the test results is not subjective.
(§7) After the inoculum of the test algae was added, the flasks were incubated at a temperature of 28°±2° C. under fluorescent illumination of 250 foot-candle intensity (8 hours light, 16 hours darkness) for a period adequate for growth in the controls (those portions of medium which contained no toxicant). Observations of growth were made at 7-day intervals. Minimum inhibitory concentrations are those that prevented complete growth after 28 days.

Phormidium inundatum = test: Growth inhibiting activity against algae in Difco Algae Broth (Phormidium inundatum); conditions: 672 h, pH 7, read-out: Minimum inhibitory concentration against algae
Method: as §1, §2, §3, §4, §5, §6, §7

Escherichia coli [1] = test: AOAC Disinfectant Swimming Pool Assay (Escherichia coli); conditions: 10 min, contact time 10 minutes, read-out: MIC (Minimum inhibitory concentration required to inhibit microorganisms)
Method: (§8) This example was based on the procedure described in AOAC (Association of Official Analytical Chemists) Official Methods of Analysis (1986) pp 75-77. The results obtained by this method are suitable for presumptive evidence of acceptability of products for disinfecting swimming pool water. The results obtained for Compound 1 in a contact time of 10 minutes are noted in Table IV.

Streptococcus faecalis [2] = test: AOAC Disinfectant Swimming Pool Assay (Streptococcus faecalis); conditions: Enterococcus faecalis, 10 min, contact time 10 minutes, read-out: MIC (Minimum inhibitory concentration required to inhibit microorganisms)
Method: as §8

Escherichia coli [3] = test: AOAC Germicidal and Detergent Sanitizing Action of Disinfectants (Escherichia coli)
Method: (§9) This test is conducted according to AOAC methods described in AOAC Official Methods of Analysis (1984) p 70. This test is suitable for chemicals that can be permitted for use in sanitizing precleaned non-porous food contact surfaces. This test also determines the effectiveness of compounds tested in hard water. Most of the detergents/sanitizers available in the market become ineffective in the presence of hard water, i.e. water containing calcium and/or magnesium ions. A water hardness value of 400 ppm was chosen because it is considered to be the highest hardness value for tap water in the United States.

Streptococcus faecalis [4] = test: AOAC Germicidal and Detergent Sanitizing Action of Disinfectants (Streptococcus faecalis)
Method: as §9

Staphylococcus aureus = test: Efficacy of Sanitizers Recommended for Non-Food Contact Surfaces, ASTM E 1153-87 (Staphylococcus aureus); conditions: 99.9% kill, read-out: Minimum inhibitory concentration required to inhibit microorganisms
Method: (§10) This test method is used to evaluate the antimicrobial efficacy of sanitizers on precleaned non-porous, non-food contact surfaces. This test was performed according to the test procedure E 1153-87 of ASTM. […] For most of the sanitizers, effectiveness is hampered (or minimum inhibitory concentrations go up) in the presence of an organic load. Therefore, the compounds of the present invention are tested both in the presence and absence of 5% organic load (Bovine albumin fraction V, Sigma Chemical Company).

Escherichia coli [5] = test: Efficacy of Sanitizers Recommended for Non-Food Contact Surfaces, ASTM E 1153-87 (Escherichia coli); conditions: 99.9% kill, read-out: Minimum inhibitory concentration required to inhibit microorganisms
Method: as §10

[6] = Hard Water (400 ppm calcium carbonate)
[7] = With 5% organic load (bovine albumin)

O=C1OC(CCl)CN1Br (centres unmarked) [Compound 1, 3-Bromo-5-chloromethyl-2-oxazolidinone]
MIC (Enterobacter aerogenes; pH 6.0): 10 µg/mL | MIC (Enterobacter aerogenes; pH 8.0): 10 µg/mL | MIC (Chlorella pyrenoidosa): 10 µg/mL (≈ 46.6 µM) | MIC (Phormidium inundatum): 2 µg/mL (≈ 9.33 µM) | MIC (Escherichia coli [1]): 80 µg/mL (≈ 373 µM) | MIC (Streptococcus faecalis [2]): 80 µg/mL (≈ 373 µM) | Minimum inhibitory concentration required to inhibit microorganisms (Escherichia coli [3]; [6]): 80 parts per million (w/v) | MIC (Escherichia coli [3]; Soft Water, read-out: Minimum inhibitory concentration required to inhibit microorganisms): 80 µg/mL (≈ 373 µM) | MIC (Streptococcus faecalis [4]; Enterococcus faecalis, Soft Water, read-out: Minimum inhibitory concentration required to inhibit microorganisms): 80 µg/mL (≈ 373 µM) | Minimum inhibitory concentration required to inhibit microorganisms (Streptococcus faecalis [4]; [6]): 80 parts per million (w/v) | MIC (Staphylococcus aureus; [7]): 160 µg/mL (≈ 746 µM) | MIC (Staphylococcus aureus; Without organic load): 80 µg/mL (≈ 373 µM) | MIC (Escherichia coli [5]; [7]): 160 µg/mL (≈ 746 µM) | MIC (Escherichia coli [5]; Without organic load): 80 µg/mL (≈ 373 µM)
